Source: patent US7943575B2, “Sustained release drug formulations containing a carrier peptide” (Ipsen Pharma S.A.S., priority 2002, dated 2011)
Where two headings read alike, the source gives them in different places. Blank lines part the entries; values can stand above or below the compound they belong to.

Experiment: Pharmacokinetic profile of a SOMATULINE/DECAPEPTYL composition in beagle dogs (RIA of blood samples)
Format: in vivo
From the text: Once a particular peptide or peptide salt is found to gel in an in vitro assay, e.g., an assay as described above, an in vivo assay can be used to determine the suitability of that peptide salt for use as a sustained-release carrier peptide of a therapeutic agent or agents in animals or humans. A blood level release profile for the carrier peptide and/or the therapeutic agent or agents can be determined by injecting the composition into an animal, e.g., a Sprague Dawley rat, a dog, etc., and testing blood samples taken at specific time intervals, e.g., hourly intervals over 1 to 5 days, or 12 or 24 hour intervals over 5 to 45 days, for the concentration of the peptide and/or therapeutic agent or agents. The suitability of a particular peptide gel, or a peptide/carrier gel, for therapeutic delivery of the carrier peptide and/or therapeutic agent or agents can thus be determined.
Generally, in such an assay animals are anaesthetized with pentobarbital (60 mg/kg i.p. for rats), and a jugular vein is cannulated for blood sampling. A test semisolid suspension or solid composition (or standard solution for comparison purposes), e.g., a SOMATULINE/DECAPEPTYL mixture, is injected subcutaneously at a specific dosage, e.g., 1.0, 3.0, or 6.0 mg/kg of SOMATULINE. After administration of the composition or solution, heparinized blood samples are obtained through the cannula at set time intervals, and plasma is separated after centrifugation. The amount of carrier peptide and/or therapeutic agent(s) in the plasma samples is/are determined by, e.g., a standard radioimmunoassay (RIA) technique that allows a direct measurement of the carrier peptide and/or therapeutic agent(s) without extraction from the rat plasma. The resulting data are plotted (e.g., blood concentration (ng/ml) vs. time) to establish a blood level release profile.
0.15 ml of the foregoing semisolid mixture from Example 1 was loaded into a 0.3 ml insulin syringe and was injected into beagle dogs. Blood samples were collected and standard radioimmunoassay (RIA) analysis was performed thereon.

level at 0.24 h (beagle, dog, in vivo, 0.15 ml): 2.66 ng/mL
level at 0.48 h (beagle, dog, in vivo, 0.15 ml): 6.04 ng/mL
level at 0.96 h (beagle, dog, in vivo, 0.15 ml): 9.97 ng/mL
level at 1.92 h (beagle, dog, in vivo, 0.15 ml): 16.4 ng/mL
level at 4.08 h (beagle, dog, in vivo, 0.15 ml): 17.3 ng/mL
level at 6 h (beagle, dog, in vivo, 0.15 ml): 21.2 ng/mL
level at 9.12 h (beagle, dog, in vivo, 0.15 ml): 23.1 ng/mL
level at 24 h (beagle, dog, in vivo, 0.15 ml): 8.11 ng/mL
level at 47.76 h (beagle, dog, in vivo, 0.15 ml): 3.97 ng/mL
level at 72.48 h (beagle, dog, in vivo, 0.15 ml): 3.16 ng/mL
level at 144.96 h (beagle, dog, in vivo, 0.15 ml): 1.35 ng/mL
level at 192.96 h (beagle, dog, in vivo, 0.15 ml): 0.94 ng/mL
level at 241.44 h (beagle, dog, in vivo, 0.15 ml): 0.5 ng/mL
level at 312.96 h (beagle, dog, in vivo, 0.15 ml): 0.42 ng/mL
level at 361.2 h (beagle, dog, in vivo, 0.15 ml): 0.32 ng/mL
level at 408.48 h (beagle, dog, in vivo, 0.15 ml): 0.24 ng/mL
level at 483.36 h (beagle, dog, in vivo, 0.15 ml): 0.19 ng/mL
level at 528.96 h (beagle, dog, in vivo, 0.15 ml): 0.13 ng/mL
level at 577.44 h (beagle, dog, in vivo, 0.15 ml): 0.11 ng/mL
level at 650.88 h (beagle, dog, in vivo, 0.15 ml): 0.07 ng/mL
duration of sustained release of therapeutic levels in the blood (dog, in vivo): one month or longer
SMILES: CC(C)C[C@H](NC(=O)[C@@H](Cc1c[nH]c2ccccc12)NC(=O)[C@H](Cc1ccc(O)cc1)NC(=O)[C@H](CO)NC(=O)[C@H](Cc1c[nH]c2ccccc12)NC(=O)[C@H](Cc1c[nH]cn1)NC(=O)[C@@H]1CCC(=O)N1)C(=O)N[C@@H](CCCNC(=N)N)C(=O)N1CCC[C@H]1C(=O)NCC(N)=O [DECAPEPTYL]

SMILES: CC(C)[C@@H]1NC(=O)[C@H](CCCCN)NC(=O)[C@@H](Cc2c[nH]c3ccccc23)NC(=O)[C@H](Cc2ccc(O)cc2)NC(=O)[C@@H](NC(=O)[C@H](N)Cc2ccc3ccccc3c2)CSSC[C@@H](C(=O)N[C@H](C(N)=O)[C@@H](C)O)NC1=O [SOMATULINE, lanreotide]
level at 0 h (dog, in vivo, TIME 0.00 days, beagle dogs, 0.15 ml Example 1 semisolid mixture injected, read-out: concentration in blood samples (RIA)): 0.02 ng/mL
level at 0.24 h (dog, in vivo, TIME 0.01 days, beagle dogs, 0.15 ml Example 1 semisolid mixture injected, read-out: concentration in blood samples (RIA)): 3.91 ng/mL
level at 0.48 h (dog, in vivo, TIME 0.02 days, beagle dogs, 0.15 ml Example 1 semisolid mixture injected, read-out: concentration in blood samples (RIA)): 7.29 ng/mL
level at 0.96 h (dog, in vivo, TIME 0.04 days, beagle dogs, 0.15 ml Example 1 semisolid mixture injected, read-out: concentration in blood samples (RIA)): 9.34 ng/mL
level at 1.92 h (dog, in vivo, TIME 0.08 days, beagle dogs, 0.15 ml Example 1 semisolid mixture injected, read-out: concentration in blood samples (RIA)): 12.6 ng/mL
level at 4.08 h (dog, in vivo, TIME 0.17 days, beagle dogs, 0.15 ml Example 1 semisolid mixture injected, read-out: concentration in blood samples (RIA)): 17.3 ng/mL
level at 6 h (dog, in vivo, TIME 0.25 days, beagle dogs, 0.15 ml Example 1 semisolid mixture injected, read-out: concentration in blood samples (RIA)): 19.5 ng/mL
level at 9.12 h (dog, in vivo, TIME 0.38 days, beagle dogs, 0.15 ml Example 1 semisolid mixture injected, read-out: concentration in blood samples (RIA)): 17.8 ng/mL
level at 24 h (dog, in vivo, TIME 1.00 days, beagle dogs, 0.15 ml Example 1 semisolid mixture injected, read-out: concentration in blood samples (RIA)): 11.4 ng/mL
level at 47.76 h (dog, in vivo, TIME 1.99 days, beagle dogs, 0.15 ml Example 1 semisolid mixture injected, read-out: concentration in blood samples (RIA)): 9.51 ng/mL
level at 72.48 h (dog, in vivo, TIME 3.02 days, beagle dogs, 0.15 ml Example 1 semisolid mixture injected, read-out: concentration in blood samples (RIA)): 7.77 ng/mL
level at 144.96 h (dog, in vivo, TIME 6.04 days, beagle dogs, 0.15 ml Example 1 semisolid mixture injected, read-out: concentration in blood samples (RIA)): 6.63 ng/mL
level at 192.96 h (dog, in vivo, TIME 8.04 days, beagle dogs, 0.15 ml Example 1 semisolid mixture injected, read-out: concentration in blood samples (RIA)): 5.99 ng/mL
level at 241.44 h (dog, in vivo, TIME 10.06 days, beagle dogs, 0.15 ml Example 1 semisolid mixture injected, read-out: concentration in blood samples (RIA)): 4.88 ng/mL
level at 312.96 h (dog, in vivo, TIME 13.04 days, beagle dogs, 0.15 ml Example 1 semisolid mixture injected, read-out: concentration in blood samples (RIA)): 3.14 ng/mL
level at 361.2 h (dog, in vivo, TIME 15.05 days, beagle dogs, 0.15 ml Example 1 semisolid mixture injected, read-out: concentration in blood samples (RIA)): 2.54 ng/mL
level at 408.48 h (dog, in vivo, TIME 17.02 days, beagle dogs, 0.15 ml Example 1 semisolid mixture injected, read-out: concentration in blood samples (RIA)): 1.85 ng/mL
level at 483.36 h (dog, in vivo, TIME 20.14 days, beagle dogs, 0.15 ml Example 1 semisolid mixture injected, read-out: concentration in blood samples (RIA)): 1.46 ng/mL
level at 528.96 h (dog, in vivo, TIME 22.04 days, beagle dogs, 0.15 ml Example 1 semisolid mixture injected, read-out: concentration in blood samples (RIA)): 1.3 ng/mL
level at 577.44 h (dog, in vivo, TIME 24.06 days, beagle dogs, 0.15 ml Example 1 semisolid mixture injected, read-out: concentration in blood samples (RIA)): 1.11 ng/mL
level at 650.88 h (dog, in vivo, TIME 27.12 days, beagle dogs, 0.15 ml Example 1 semisolid mixture injected, read-out: concentration in blood samples (RIA)): 0.65 ng/mL
level at 698.64 h (dog, in vivo, TIME 29.11 days, beagle dogs, 0.15 ml Example 1 semisolid mixture injected, read-out: concentration in blood samples (RIA)): 0.52 ng/mL
level at 745.2 h (dog, in vivo, TIME 31.05 days, beagle dogs, 0.15 ml Example 1 semisolid mixture injected, read-out: concentration in blood samples (RIA)): 0.52 ng/mL
level at 818.64 h (dog, in vivo, TIME 34.11 days, beagle dogs, 0.15 ml Example 1 semisolid mixture injected, read-out: concentration in blood samples (RIA)): 0.5 ng/mL
level at 866.88 h (dog, in vivo, TIME 36.12 days, beagle dogs, 0.15 ml Example 1 semisolid mixture injected, read-out: concentration in blood samples (RIA)): 0.45 ng/mL
level at 912.72 h (dog, in vivo, TIME 38.03 days, beagle dogs, 0.15 ml Example 1 semisolid mixture injected, read-out: concentration in blood samples (RIA)): 0.34 ng/mL
level at 984.72 h (dog, in vivo, TIME 41.03 days, beagle dogs, 0.15 ml Example 1 semisolid mixture injected, read-out: concentration in blood samples (RIA)): 0.27 ng/mL
level at 1082.4 h (dog, in vivo, TIME 45.10 days, beagle dogs, 0.15 ml Example 1 semisolid mixture injected, read-out: concentration in blood samples (RIA)): 0.17 ng/mL
level at 1160.64 h (dog, in vivo, TIME 48.36 days, beagle dogs, 0.15 ml Example 1 semisolid mixture injected, read-out: concentration in blood samples (RIA)): 0.14 ng/mL
level at 1199.76 h (dog, in vivo, TIME 49.99 days, beagle dogs, 0.15 ml Example 1 semisolid mixture injected, read-out: concentration in blood samples (RIA)): 0.15 ng/mL
level at 1248.24 h (dog, in vivo, TIME 52.01 days, beagle dogs, 0.15 ml Example 1 semisolid mixture injected, read-out: concentration in blood samples (RIA)): 0.21 ng/mL
level at 1368.96 h (dog, in vivo, TIME 57.04 days, beagle dogs, 0.15 ml Example 1 semisolid mixture injected, read-out: concentration in blood samples (RIA)): 0.14 ng/mL
level at 1417.92 h (dog, in vivo, TIME 59.08 days, beagle dogs, 0.15 ml Example 1 semisolid mixture injected, read-out: concentration in blood samples (RIA)): 0.27 ng/mL
level at 1536.48 h (dog, in vivo, TIME 64.02 days, beagle dogs, 0.15 ml Example 1 semisolid mixture injected, read-out: concentration in blood samples (RIA)): 0.21 ng/mL
level at 1584.48 h (dog, in vivo, TIME 66.02 days, beagle dogs, 0.15 ml Example 1 semisolid mixture injected, read-out: concentration in blood samples (RIA)): 0.2 ng/mL
level at 1656.24 h (dog, in vivo, TIME 69.01 days, beagle dogs, 0.15 ml Example 1 semisolid mixture injected, read-out: concentration in blood samples (RIA)): 0.16 ng/mL
level at 1707.6 h (dog, in vivo, TIME 71.15 days, beagle dogs, 0.15 ml Example 1 semisolid mixture injected, read-out: concentration in blood samples (RIA)): 0.15 ng/mL
duration of sustained release of therapeutic levels in the blood (gel with SOMATULINE as carrier peptide and DECAPEPTYL as therapeutic agent, see Example 1): one month or longer
